Measured values reported in US7915297B2, “Isoxazole derivatives and use thereof” (SK Holdings Co., Ltd., priority 2005, dated 2011).

Experiments:
[1] = test system: Wnt/β-catenin signaling (β-catenin activity) in HEK293 cell line; test: Cell-based Wnt agonist screening, TCF luciferase reporter, HEK293 (TCF-FL); set-up: species or system human; settings: Homo sapiens, HEK293, 24 h, % of LiCl (20 mM), 24 h, read-out: Max. Activity (%); for Emax at 120 µM: Conc. 120 μM; for Emax at 30 µM: Conc. 30 μM; for Emax at 15 µM: Conc. 15 μM
Text: (§1) In order to measure the in vitro activity of compounds of the present invention, two human cancer cell lines, HEK293 and SW480, which have intact Wnt signaling and show APC gene mutation in the Wnt signaling pathway, respectively, were used.
(§2) For evaluating the activity of wnt/β-catenin signaling in the cancer cell lines, gene as illustrated in FIG. 1 having β-catenin-binding sites of the Tcf/Lef transcriptional control protein (5 sites of TCF, 5X TCF) and having a fire fly luficerase as a marker protein ascertainable the activity of 5X TCF was introduced into the cells. Treatment with G418 led monoclones of the cell lines, in which the genes were permanently expressed, so as to construct a cell-based Wnt agonist screening system. […] For comparison with the activity of the isoxazole derivatives as Wnt agonists, lithium chloride (LiCl), acting as a positive control for the cell-based Wnt agonist screening system, was used to determine the expression level of the luciferase, and the results are shown in FIG. 3.
(§3) The cell lines, in which a cell-based Wnt agonist screening system was constructed, were cultured in RPMI 1640 media supplemented with penicillin-streptomycin (100 Units/mL) and heat-inactivated 5% fetal bovine serum under standard culture conditions (5% CO2, 37° C., 100% relative humidity). […] The suspension was diluted with the same medium to adjust the cell count to 8,000˜15,000 cells per well and was moved then in a 96-well microtiter plate. After being incubated for 24 hrs, the cells were treated with various concentrations of the isoxazole derivatives synthesized in Preparation Examples. Incubation for an additional 24 hours was followed by the quantitative analysis of luciferase activity using a Luciferase Assay kit (Promega, U.S.A.) according to the protocol described in the manual provided by the manufacturer. Data on the activities of the isoxazole derivatives thus synthesized are given in Tables 34 to 43, and are expressed as percentages relative to the activity of the positive control LiCl (20 mM), a well-known agonist of Wnt signaling.

[2] = test system: Wnt/β-catenin signaling (β-catenin activity) in SW480 cell line; test: Cell-based Wnt agonist screening, TCF luciferase reporter, SW480 (TCF-FL); set-up: species or system human; settings: Homo sapiens, % of LiCl (20 mM), 24 h, read-out: Max. Activity (%); for Emax at 120 µM: Con. 120 μM; for Emax at 30 µM: Con. 30 μM; for Emax at 60 µM: Con. 60 μM; for Emax at 15 µM: Con. 15 μM
Text: as §1, §2, §3

Compound | Emax at 30 µM [1] [%] | Emax at 30 µM [2] [%] | further results
Cc1cn(CCNC(=O)c2cc(-c3ccco3)on2)cn1 [Derivative (37), 5-furan-2-yl-isoxazole-3-carboxylic acid [2-(4-methyl-imidazol-1-yl)-ethyl]-amide] |  |  | Emax at 120 µM [1]: 44%; Emax at 120 µM [2]: 296%
O=C(NCc1ccccc1)c1cc(-c2ccco2)on1 [Derivative (4), 5-furan-2-yl-isoxazole-3-carboxylic acid benzylamide] | < 20 | < 20 | 
Nc1cccc(-c2cc(C(=O)NCCCn3ccnc3)no2)c1 [Derivative (119), 5-(3-amino-phenyl)-isoxazole-3-carboxylic acid (3-imidazol-1-yl-propyl)-amide] | < 20 |  | Emax at 120 µM [1]: 43%; Emax at 120 µM [2]: 43%
O=C(NCCCn1ccnn1)c1cc(-c2ccco2)on1 [Derivative (49), 5-furan-2-yl-isoxazole-3-carboxylic acid (3-[1,2,3]triazol-1-yl-propyl)-amide] | < 20 | < 20 | 
O=C(O)c1cn(CCCNC(=O)c2cc(-c3ccco3)on2)cn1 [Derivative (59), 1-{3-[(5-furan-2-yl-isoxazole-3-carbonyl)-amino]-propyl}-1H-imidazole-4-carboxylic acid] | < 20 |  | Emax at 60 µM [2]: 592%
Cc1cn(CCCNC(=O)c2cc(-c3ccco3)on2)cn1 [Derivative (56), 5-furan-2-yl-isoxazole-3-carboxylic acid [3-(4-methyl-imidazol-1-yl)-propyl]-amide] | < 20 |  | Emax at 15 µM [1]: 58%; Emax at 600 µM ([2]; Con. 600 μM): 650%
O=C(NCCc1ccccc1)c1cc(-c2ccco2)on1 [Derivative (5), 5-furan-2-yl-isoxazole-3-carboxylic acid phenethyl-amide] | < 20 | 148 | 
Nc1ccccc1NC(=O)c1cc(-c2ccco2)on1 [Derivative (3), 5-furan-2-yl-isoxazole-3-carboxylic acid (2-amino-phenyl)-amide] | < 20 |  | Emax at 40 µM ([2]; Con. 40 μM): 331%
O=C(NCCc1cccnc1)c1cc(-c2ccco2)on1 [Derivative (11), 5-furan-2-yl-isoxazole-3-carboxylic acid (2-pyridin-3-yl-ethyl)-amide] | 61 |  | Emax at 60 µM [2]: 625%
Cc1cncn1CCCNC(=O)c1cc(-c2ccco2)on1 [Derivative (57), 5-furan-2-yl-isoxazole-3-carboxylic acid [3-(5-methyl-imidazol-1-yl)-propyl]amide] | < 20 | < 20 | 
O=C(NCCn1nccn1)c1cc(-c2ccc(F)cc2)on1 [Derivative (89), 5-(4-fluoro-phenyl)-isoxazole-3-carboxylic acid (2-[1,2,3]triazol-2-yl-ethyl)-amide] | 132 | 132 | 
O=C(NCCn1ccnn1)c1cc(-c2ccc(F)cc2)on1 [Derivative (90), 5-(4-fluoro-phenyl)-isoxazole-3-carboxylic acid (2-[1,2,3]triazol-1-yl-ethyl)-amide] | 92 | 92 | 
O=C(NCCCc1ccccc1)c1cc(-c2ccco2)on1 [Derivative (6), 5-furan-2-yl-isoxazole-3-carboxylic acid (3-phenyl-propyl)-amide] | < 20 |  | Emax at 60 µM [2]: 322%
O=C(NCCc1cccnc1)c1cc(-c2cccc(O)c2)on1 [Derivative (110), 5-(3-hydroxy-phenyl)-isoxazole-3-carboxylic acid (2-pyridin-3-yl-ethyl)-amide] | < 20 | < 20 | 
O=C(NCCc1ccccn1)c1cc(-c2ccccc2)on1 [Derivative (70), 5-phenyl-isoxazole-3-carboxylic acid (2-pyridin-2-yl-ethyl)-amide] |  |  | Emax at 60 µM ([1]; Conc. 60 μM): 51%; Emax at 120 µM [2]: 789%
O=C(NCCCn1ccnc1)c1cc(-c2ccncc2)on1 [Derivative (77), 5-pyridin-4-yl-isoxazole-3-carboxylic acid (3-imidazol-1-yl-propyl)-amide] | < 20 | < 20 | 
O=C(NCc1ccccn1)c1cc(-c2ccco2)on1 [Derivative (7), 5-furan-2-yl-isoxazole-3-carboxylic acid (pyridin-2-ylmethyl)-amide] | < 20 | < 20 | 
CCc1c(C(=O)NCCCn2ccnc2)noc1-c1ccco1 [Derivative (66), 4-ethyl-5-furan-2-yl-isoxazole-3-carboxylic acid (3-imidazol-1-yl-propyl)-amide] | < 20 | < 20 | 
O=C(NCCc1ccc(F)cc1)c1cc(-c2ccco2)on1 [Derivative (18), 5-furan-2-yl-isoxazole-3-carboxylic acid [2-(4-fluoro-phenyl)-ethyl]-amide] | < 20 |  | Emax at 15 µM [2]: 149%
O=C(NCCn1ccnc1)c1cc(-c2ccccc2)on1 [Derivative (69), 5-phenyl-isoxazole-3-carboxylic acid (2-imidazol-1-yl-ethyl)-amide] | < 20 | < 20 | 
O=C(NCCc1ccncc1)c1cc(-c2cccc(O)c2)on1 [Derivative (108), 5-(3-hydroxy-phenyl)-isoxazole-3-carboxylic acid (2-pyridin-4-yl-ethyl)-amide] | < 20 |  | Emax at 15 µM [1]: 600%; Emax at 15 µM [2]: 600%
O=C(NCc1ccncc1)c1cc(-c2ccco2)on1 [Derivative (9), 5-furan-2-yl-isoxazole-3-carboxylic acid (pyridin-4-ylmethyl)-amide] | < 20 | < 20 | 
Cc1cccc(-c2cc(C(=O)NCCCn3ccnc3)no2)c1 [Derivative (79), 5-m-tolyl-isoxazole-3-carboxylic acid (3-imidazol-1-yl-propyl)-amide] |  |  | Emax at 10 µM ([1]; Conc. 10 μM): 48%; Emax at 10 µM ([2]; Con. 10 μM): 48%
O=C(O)c1ccc(CCNC(=O)c2cc(-c3ccco3)on2)cc1 [Derivative (32), 4-{2-[(5-furan-2-yl-isoxazole-3-carbonyl)-amino]-ethyl}-benzoic acid] |  |  | Emax at 120 µM [1]: 52%; Emax at 120 µM [2]: 789%
O=C(NCCCn1ccnc1)c1cc(-c2ccccc2F)on1 [Derivative (81), 5-(2-fluoro-phenyl)-isoxazole-3-carboxylic acid (3-imidazol-1-yl-propyl)-amide] |  |  | Emax at 120 µM [1]: 869%; Emax at 120 µM [2]: 869%
O=C(NCCc1cccc(O)c1)c1cc(-c2ccco2)on1 [Derivative (23), 5-furan-2-yl-isoxazole-3-carboxylic acid [2-(3-hydroxy-phenyl)-ethyl]-amide] | < 20 | < 20 | 
O=C(NCCCn1ccnc1)c1cc(-c2cccc(F)c2)on1 [Derivative (82), 5-(3-fluoro-phenyl)-isoxazole-3-carboxylic acid (3-imidazol-1-yl-propyl)-amide] |  |  | Emax at 120 µM [1]: 67%; Emax at 120 µM [2]: 67%
COc1cccc(CCNC(=O)c2cc(-c3ccco3)on2)c1 [Derivative (20), 5-furan-2-yl-isoxazole-3-carboxylic acid [2-(3-methoxy-phenyl)-ethyl]-amide] | < 20 |  | Emax at 60 µM [2]: 528%
COc1ccccc1-c1cc(C(=O)NCCCn2ccnc2)no1 [Derivative (99), 5-(2-methoxy-phenyl)-isoxazole-3-carboxylic acid (3-imidazol-1-yl-propyl)-amide] |  |  | Emax at 120 µM [1]: 37%; Emax at 120 µM [2]: 37%
O=C(NCCCn1ccnc1)c1cc(-c2ccccc2)on1 [Derivative (68), 5-phenyl-isoxazole-3-carboxylic acid (3-imidazol-1-yl-propyl)-amide] | 47 |  | Emax at 60 µM [2]: 486%
